Patent US10337014B2, “Low molecular weight cyclic amine containing cationic lipids for oligonucleotide delivery” (SIRNA THERAPEUTICS, INC., priority 2010, dated 2019)

Assays:
[1] = system: mRNA transcript for the firefly (Photinus pyralis) luciferase gene; assay: Mouse in vivo evaluation of efficacy (luciferase siRNA LNP, liver luminescence); details: RDV (LNP) with Luc siRNA, tail vein, 0.1 to 0.5 mg/kg siRNA, imaged 48 hours post dose; compared with RDV containing Compound A
Description: LNPs utilizing Compound 4, in the nominal compositions described immediately above, were evaluated for in vivo efficacy. The siRNA targets the mRNA transcript for the firefly (Photinus pyralis) luciferase gene (Accession #M15077). […] The in vivo luciferase model employs a transgenic mouse in which the firefly luciferase coding sequence is present in all cells. ROSA26-LoxP-Stop-LoxP-Luc (LSL-Luc) transgenic mice licensed from the Dana Farber Cancer Institute are induced to express the Luciferase gene by first removing the LSL sequence with a recombinant Ad-Cre virus (Vector Biolabs). Due to the organo-tropic nature of the virus, expression is limited to the liver when delivered via tail vein injection. Luciferase expression levels in liver are quantitated by measuring light output, using an IVIS imager (Xenogen) following administration of the luciferin substrate (Caliper Life Sciences). Pre-dose luminescence levels are measured prior to administration of the RDVs. Luciferin in PBS (15 mg/mL) is intraperitoneally (IP) injected in a volume of 150 μL. After a four minute incubation period mice are anesthetized with isoflurane and placed in the IVIS imager. The RDVs (containing siRNA) in PBS vehicle were tail vein injected n a volume of 0.2 mL. […] In vivo efficacy results are expressed as % inhibition of luminescence relative to pre-dose luminescence levels. […]

[2] = system: mRNA transcript for the ApoB gene; assay: Rat in vivo evaluation of efficacy (ApoB siRNA LNP, liver ApoB mRNA by RT-PCR); details: RDV (LNP) with ApoB siRNA, tail vein, Sprague-Dawley female rats, 24 hours after dosing; compared with RDV containing DLinKC2DMA (Compound 12)
Description: (§1) Six hours post dose, food is removed from the cages. Animal necropsy is performed 24 hours after LNP dosing. Rats are anesthetized under isoflurane for 5 minutes, then maintained under anesthesia by placing them in nose cones continuing the delivery of isoflurane until ex-sanguination is completed. Blood is collected from the vena cava using a 23 gauge butterfly venipuncture set and aliquoted to serum separator vacutainers for serum chemistry analysis. Punches of the excised caudate liver lobe are taken and placed in RNALater (Ambion) for mRNA analysis. Preserved liver tissue was homogenized and total RNA isolated using a Qiagen bead mill and the Qiagen miRNA-Easy RNA isolation kit following the manufacturer's instructions. Liver ApoB mRNA levels were determined by quantitative RT-PCR. Message was amplified from purified RNA utilizing a rat ApoB commercial probe set (Applied Biosystems Cat #RN01499054_m1). The PCR reaction was performed on an ABI 7500 instrument with a 96-well Fast Block. The ApoB mRNA level is normalized to the housekeeping PPIB (NM 011149) mRNA. PPIB mRNA levels were determined by RT-PCR using a commercial probe set (Applied Biosytems Cat. No. Mm00478295_m1). Results are expressed as a ratio of ApoB mRNA/PPIB mRNA. All mRNA data is expressed relative to the PBS control dose. […]

[3] = Rat in vivo evaluation of toxicity (serum ALT and AST); details: RDV (LNP) with ApoB siRNA, tail vein, Sprague-Dawley female rats, 24 hours after dosing; compared with RDV containing DLinKC2DMA (Compound 12)
Description: as §1

[4] = Determination of cationic lipid levels in rat liver (LC/MS-MS); type: in vivo; details: rats dosed with RDV, 0.5 mg/kg; compared with RDV containing DLinKC2DMA (Compound 12) or MC3 (Compound 13), also 0.5 mg/kg
Description: Liver tissue was weighed into 20-ml vials and homogenized in 9 v/w of water using a GenoGrinder 2000 (OPS Diagnostics, 1600 strokes/min, 5 min). A 50 μL aliquot of each tissue homogenate was mixed with 300 μL of extraction/protein precipitating solvent (50/50 acetonitrile/methanol containing 500 nM internal standard) and the plate was centrifuged to sediment precipitated protein. A volume of 200 μL of each supernatant was then transferred to separate wells of a 96-well plate and 10 μl samples were directly analyzed by LC/MS-MS.
Standards were prepared by spiking known amounts of a methanol stock solution of compound into untreated rat liver homogenate (9 vol water/weight liver). Aliquots (50 μL) each standard/liver homogenate was mixed with 300 μL of extraction/protein precipitating solvent (50/50 acetonitrile/methanol containing 500 nM internal standard) and the plate was centrifuged to sediment precipitated protein. A volume of 200 μL of each supernatant was transferred to separate wells of a 96-well plate and 10 μl of each standard was directly analyzed by LC/MS-MS.
Absolute quantification versus standards prepared and extracted from liver homogenate was performed using an Aria LX-2 HPLC system (Thermo Scientific) coupled to an API 4000 triple quadrupole mass spectrometer (Applied Biosystems). […]

**Q.** Which “in vivo efficacy (% inhibition of luminescence relative to pre-dose luminescence levels)” value [1] does the source give for `CCCCC/C=C\C/C=C\CCCCCCCCO[C@@H]1CN(C)C[C@H]1OCCCCCCCC` (relative stereo) [Compound 4, trans-1-Methyl-3-[((9Z,12Z)-octadeca-9,12-dienyl)oxy]-4-octyloxy-pyrrolidine] here?
**A.** Greater efficacy

**Q.** And the “in vivo efficacy (liver ApoB mRNA/PPIB mRNA relative to PBS control)” value [2]?
**A.** Modestly decreased efficacy

**Q.** And the “tolerability (increases in serum alanine amino transferase and aspartate amino transferase)” value [3]?
**A.** significantly improved tolerability

**Q.** What about the “cationic lipid levels in rat liver” value [4] of the same compound?
**A.** much lower
